Data: patent US8491938B2, “Potent inhibitory effect of zinc in combination with sulforaphane on cancer cell growth” (University of Maryland, Baltimore, priority 2009, dated 2013)
Where two headings read alike, the source gives them in different places.

What was measured:
Format in all cases: cell-based, human
PC-3 cells [1] = assay: ROS detection (carboxy-H2DCFDA, flow cytometry) in PC-3 cells; settings: for effect on ROS production induced by zinc, SFN or zinc/SFN combination / effect on surge of ROS induced by zinc/SFN combination: PC-3, inhibitor 6 mM; for effect on ROS production induced by zinc, SFN or zinc/SFN combination: 30 min pretreatment, 6 h and 24 h; for effect on surge of ROS induced by zinc/SFN combination: 24 h of treatment; for increase of ROS levels: PC-3, SFN alone
Experimental: 5-(and-6)-carboxy-2 ′,7 ′-dichlorodihydrofluorescein diacetate (carboxy-H2DCFDA,) was used to determine the intracellular ROS levels of individual cells. In living cells, this compound is oxidized and converted to the 2′,7′-dichlorofluoroscein (DCF) that is highly fluorescent. In the experiments, PC-3 cells cultured on 12-well plates were incubated in serum-free medium containing zinc sulfate ([…])/SFN (12 μM). Thirty min prior to the completion of the time course, carboxy-H2DCFDA was added at a final concentration of 5 μM. Cells were then collected and washed once with PBS. The fluorescent intensity of DCF was assayed by FACScan (Becton Dickinson)[3].

PC-3 cells [2] = assay: MTT cell viability assay, PC-3 cells; settings: for effect on growth inhibitory effect of zinc, SFN and their combination: PC-3, inhibitor 6 mM pretreatment; for effect on growth inhibitory effect of zinc, SFN and their combination / IC50: MTT; for IC50: PC-3 cells, single agent, read-out: 50% inhibitory concentration (IC50)
Experimental: Two human prostatic cell lines were used: a) HPR-1, a cell line derived from normal human prostate epithelial cells (kindly provided by Dr. C. K. Choo, University of Hong Kong, Hong Kong, China); and b) PC-3, a human malignant prostate cell line (ATCC, Rockville, Md.). HPR-1 cells were cultured in keratinocyte medium supplemented with epidermal growth factor (EGF) ([…]) and bovine pituitary extracts (25 mg/500 ml) (Gibco BRL, Life Technologies, Bethesda, Md.). PC-3 cells were cultured in RPMI-1640 medium with 5% or 10% of fetal bovine serum (FBS), respectively. All media were supplemented with penicillin/streptomycin (1 U/ml, Invitrogen), and the cells were maintained at 37° C. in a humidified incubator with 5% CO2. The passages of the cell lines were within the range of 5-40. Once the cell density reached 50-60% confluence, the growth media were replaced by fresh serum/supplement-free medium for 24 h to synchronize cell growth. The cells were then treated with or without zinc sulfate (concentrations as indicated in the legends) in fresh serum/supplement-free medium for 0, 1, 3, 6, 12, and 24 h, respectively.
(§1) Cell viability and proliferation were evaluated with the MTT assay. The cells were seeded at a density of 9×10^3 cells/well in a 96 well plate containing 100 μl culture medium/well. After attachment, cells were treated with or without zinc and/or SFN at various concentrations in serum/supplement free medium. After 24 h treatment, 10 μl MTT (5 mg/ml, sigma) was added into each well and incubated at 37° C. for 1 h. Then the medium was removed and 100 μl dimethyl sulfoxide (DMSO) was added to dissolve water-insoluble formazan crystals converted from water-soluble MTT by living cells. The color absorbency of formazan was detected at a wavelength of 540 nm using a microplate reader (Molecular Devices).
[formula] experiments were designed by a statistics-based method utilizing the maximal power design developed by Fang and Tan(2003, 2008) and the corresponding SynStat version 1.beta software (http://www.umgcc.org/research/biostat_software.htm), This method uses uniform measures maximizes the minimum power of the F-test to detect departures from the additive action of drugs. […] With the information from experiments of single agents, SynStat derived 21 mixtures of the two agents and 6 replicates at each mixture based on the pooled variations in single agent experiments, which have 80% statistical power to detect at least a 15% difference in viability between the predicted additive values and the observed values at a significance level of 5%. Then, cells are exposed to these 21 mixtures and the cytotoxicity of this combination is determined. Upon completion of the experiments, we use the F-statistic given by Tan et al. (2003) to test the hypothesis of the additive action of two agents and calculate the p-value of the F-test. If the p-value is greater than 0.05, we can accept the hypothesis of the additive action of two agents. Otherwise, we calculate the interaction index (τ), which is proposed by Berenbaum who adopted the Lowe additivity model (Berenbaum, 1977) where, for a given cytotoxic effect, xA and xB are the concentrations of zinc and SFN in the combination, and XA and XB are the concentrations of zinc and SFN respectively that achieve the same cytotoxic effect when given alone. A τ value of 1 indicates additivity; τ<1 indicates synergy, and τ>1 indicates antagonism.

PC-3 cells [3] = assay: Mitochondrial membrane potential (MMP) detection, DiOC6(3)/PI flow cytometry, PC-3 cells; settings: for effect on MMP alteration induced by zinc/SFN: PC-3, pretreatment 30 min, treatment 24 h; for effect on MMP versus control, single agent: PC-3, zinc alone or SFN 12 μM alone
Source text: Cell flow cytometric analysis with 3,3′-dihexyloxacarbocyanine iodide (DiOC6(3); Invitrogen, Carlsbad, Calif.) and propidium iodide (PI;BD Pharmingen, San Jose, Calif.) was used to evaluate MMP and apoptosis of the cells. The fluorescence dye DiOC6(3) is featured by its accumulation in the mitochondrial matrix, which is resulted from negative mitochondrial membrane potential within viable cells. Thus, the changes of fluorescence of DiOC6(3) reflect the MMP alteration of the cells. Another fluorescence dye PI is cell membrane impermeable and able to stain DNA once cell membrane integrity is damaged during apoptosis. In the experiments, after treatments, cells (2.5×10^5/ml) were incubated with 100 nM DiOC6(3) in PBS for 15 min at 37° C. Then the cells were washed in PBS once, followed by incubation with 2.5 μg/ml PI for additional 10 min at room temperature. The samples were subjected to cell flow cytometric analysis, and FACScan (Becton Dickinson) was used to analyze the fluorescence of DIOC6(3) and PI [2].

HPR-1 cells = assay: MTT cell viability assay, HPR-1 cells
Experimental: as §1, with “Two human prostatic cell lines were used: a) HPR-1, a cell line derived from normal human prostate epithelial cells (kindly provided by Dr. C. K. Choo, University of Hong Kong, Hong Kong, China); and b) PC-3, a human malignant prostate cell line (ATCC, Rockville, Md.). HPR-1 cells were cultured in keratinocyte medium supplemented with epidermal growth factor (EGF) ([…]) and bovine pituitary extracts (25 mg/500 ml) (Gibco BRL, Life Technologies, Bethesda, Md.). […] The passages of the cell lines were within the range of 5-40. […] Cell” for “Cell”

p38 = assay: Western blot of p38 activation in PC-3 cells; settings: PC-3, 6 h treatment, versus control
Experimental: (§2) Total cellular proteins from the experimental samples were extracted by radioimmuno-precipitation assay (RIPA) lysis buffer (Upstate, Lake Placid, N.Y.) containing protease inhibitor (Roche Diagnostics Gmbh, Mannheim, Germany). The protein extracts (30 μg/lane) were applied to electrophoresis on an SDS-polyacrylamide gel, and then, a transferred poly(vinylidene fluoride) (PVDF) membrane (Millipore, Billerica, Mass.) was blocked in 5% nonfat dry milk in phosphate buffered saline (PBS) containing 0.05% Tween-20 (Sigma, St. Louis, Mo.) (PBST) for 1 hr at room temperature followed by the hybridization to the primary antibodies against PARP (BD pharmingen, San Jose, Calif.), caspase 3 (BD pharmingen, San Jose, Calif.), p-JNK and JNK1 (Santa Cruz, Calif.), pP38 and P38 (Cell Signaling Technology, Danvers, Mass.), ppERK1/2 (Sigma, St. Louis, Mo.), ERK1/2 (Cell Signaling Technology, Danvers, Mass.) at 4° C. overnight. After washing, the membranes were incubated with corresponding second antibodies. Beta-actin (Sigma, St. Louis, Mo.) and GAPDH (Cell Signaling Technology, Danvers, Mass.) were used as internal controls to monitor the sample loadings. […] The signals of targeted bands were scanned and quantified with an LKB Ultra Scan XL laser densitometer (Image Quant, Molecular Dynamics, Sunnyvale, Calif.).

[4] = test system: cytochrome c, pro-caspase 3 and PARP; assay: Western blot of apoptosis proteins in PC-3 cells; settings: PC-3, zinc 12.5 μM or SFN 12 μM alone, 24 h
Experimental: as §2, with “Calif.). […]” for “Calif.).”

MT1/2 [5] = assay: Western blot of MT1/2 expression in HPR-1 cells; settings: zinc at 24 h, SFN at 6 h and 24 h
Experimental: as §2

MT1/2 [6] = assay: Western blot of MT1/2 expression in PC-3 cells; settings: zinc at 24 h, SFN and combination at 6 and 24 h
Experimental: as §2

With `N[C@@H](CCC(=O)N[C@@H](CS)C(=O)NCC(=O)O)C(=O)O` [GSH, reduced glutathionein] the “effect on ROS production induced by zinc, SFN or zinc/SFN combination” value (PC-3 cells [1]) was “significantly inhibited ROS production”, the “effect on surge of ROS induced by zinc/SFN combination” value (PC-3 cells [1]) was “completely abolished” and the “effect on growth inhibitory effect of zinc, SFN and their combination” value (PC-3 cells [2]) was “concordantly abolished”. For the same compound, the “effect on MMP alteration induced by zinc/SFN” value (PC-3 cells [3]) was “completely prevented”.
In the case of `CC(=O)N[C@@H](CS)C(=O)O` [NAC, N-Acetyl Cysteine], the “effect on ROS production induced by zinc, SFN or zinc/SFN combination” value (PC-3 cells [1]) is reported as “significantly inhibited ROS production”, the “effect on surge of ROS induced by zinc/SFN combination” value (PC-3 cells [1]) is reported as “completely abolished” and the “effect on growth inhibitory effect of zinc, SFN and their combination” value (PC-3 cells [2]) is reported as “concordantly abolished”. For the same compound, the “effect on MMP alteration induced by zinc/SFN” value (PC-3 cells [3]) was “completely prevented”.
`C[S+]([O-])CCCCN=C=S` (centres unmarked) [SFN, 1-Isothiocyanato-4-methylsulfinylbutane] was tested, and the “HPR-1 cells still alive (plateau)” value (HPR-1 cells; SFN 25 μM and even higher, 24 h) was 60%, the “response of HPR-1 cells to lower concentration of SFN” value (HPR-1 cells; SFN <10 μM, 24 h) was “no response” and the “proliferation of HPR-1 cells” value (HPR-1 cells; SFN at the range of 10 to 25, 24 h, less effective than in PC-3 cells) was “inhibited in a dose-dependent pattern”. For the same compound, the “increase of ROS levels” value (PC-3 cells [1]; late time points (12 to 24 h), first value) was “about 35%”, the “increase of ROS levels” value (PC-3 cells [1]; late time points (12 to 24 h), second value) was roughly 55% and the “phosphorylation of p38” value (p38) was “increased phosphorylation of p38”. For the same compound, the IC50 (PC-3 cells [2]; Homo sapiens, 24 h) was 20.3 ± 0.8 µM, the “apoptotic effect (cytochrome c, pro-caspase 3, PARP), single agent” value [4] was “lack of cell responses” and the “effect on MMP versus control, single agent” value (PC-3 cells [3]) was “did not affect MMP at all”. The MT1/2 protein levels (MT1/2 [5]) was “decreased expression of MT1/2” and the MT1/2 protein levels (MT1/2 [6]) was “no effect or a slight inhibition”.
In the case of `O=S(=O)([O-])[O-].[Zn+2]` [zinc, zinc sulfate], the “HPR-1 cells still alive” value (HPR-1 cells; zinc 30 μM, 24 h) is reported as “around 90%”, the “response of HPR-1 cells to zinc” value (HPR-1 cells; zinc alone at doses of the six selected combinations, 24 h) is reported as “no response” and the “increase of ROS level” value (PC-3 cells [1]; PC-3, zinc alone, late time points (12 to 24 h)) is reported as 40-50%. The “phosphorylation of p38” value (p38) was “increased phosphorylation of p38”, the IC50 (PC-3 cells [2]; 24 h) was 16.2 ± 0.9 µM and the “PC-3 cells that could survive” value (PC-3 cells [2]; zinc 30 μM, 24 h) was “less than 20%”. The “apoptotic effect (cytochrome c, pro-caspase 3, PARP), single agent” value [4] was “lack of cell responses”, the “effect on MMP versus control, single agent” value (PC-3 cells [3]) was “increase one fold” and the MT1/2 protein levels (MT1/2 [5]) was “induce expression of MT1/2 significantly”. For the same compound, the MT1/2 protein levels (MT1/2 [6]) was “significant induction”.
